Test results from the supplement of paper PMC11451515.

System: P12-Ichikawa
Test: cell viability relative to DMSO control; higher = less cytotoxic
Details: 48 h
Summary of the method: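 NOMO1, SEM and P12-Ichikawa leukemia cells spent at least four passages adapting to each medium before use. They were seeded at 500 cells/well (NOMO1, SEM) or 1000 cells/well (P12-Ichikawa) in 5 μl in 1536-well plates and pin-dosed with library compounds in DMSO at 11 threefold steps from 47 μM down to 0.79 nM. After 48 h at 37°C, CellTiter-Glo One luminescence was read. Viability is reported as a percentage of the DMSO wells on each plate, with cell-free wells as background.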

[1] = HPLM + 10% dialyzed FBS, 0.000781 µM
[2] = HPLM + 10% dialyzed FBS, 0.00234 µM
[3] = HPLM + 10% dialyzed FBS, 0.00702 µM
[4] = HPLM + 10% dialyzed FBS, 0.0211 µM
[5] = HPLM + 10% dialyzed FBS, 0.0632 µM
[6] = HPLM + 10% dialyzed FBS, 0.19 µM
[7] = HPLM + 10% dialyzed FBS, 0.569 µM
[8] = HPLM + 10% dialyzed FBS, 1.71 µM
[9] = HPLM + 10% dialyzed FBS, 5.12 µM
[10] = HPLM + 10% dialyzed FBS, 15.4 µM
[11] = HPLM + 10% dialyzed FBS, 46.1 µM
[12] = RPMI 5 mM glucose + 10% FBS, 0.000781 µM
[13] = RPMI 5 mM glucose + 10% FBS, 0.00234 µM
[14] = RPMI 5 mM glucose + 10% FBS, 0.00702 µM
[15] = RPMI 5 mM glucose + 10% FBS, 0.0211 µM
[16] = RPMI 5 mM glucose + 10% FBS, 0.0632 µM
[17] = RPMI 5 mM glucose + 10% FBS, 0.19 µM
[18] = RPMI 5 mM glucose + 10% FBS, 0.569 µM
[19] = RPMI 5 mM glucose + 10% FBS, 1.71 µM
[20] = RPMI 5 mM glucose + 10% FBS, 5.12 µM
[21] = RPMI 5 mM glucose + 10% FBS, 15.4 µM
[22] = RPMI 5 mM glucose + 10% FBS, 46.1 µM
[23] = RPMI 5 mM glucose + 10% dialyzed FBS, 0.000781 µM
[24] = RPMI 5 mM glucose + 10% dialyzed FBS, 0.00234 µM
[25] = RPMI 5 mM glucose + 10% dialyzed FBS, 0.00702 µM
[26] = RPMI 5 mM glucose + 10% dialyzed FBS, 0.0211 µM
[27] = RPMI 5 mM glucose + 10% dialyzed FBS, 0.0632 µM
[28] = RPMI 5 mM glucose + 10% dialyzed FBS, 0.19 µM
[29] = RPMI 5 mM glucose + 10% dialyzed FBS, 0.569 µM
[30] = RPMI 5 mM glucose + 10% dialyzed FBS, 1.71 µM
[31] = RPMI 5 mM glucose + 10% dialyzed FBS, 5.12 µM
[32] = RPMI 5 mM glucose + 10% dialyzed FBS, 15.4 µM
[33] = RPMI 5 mM glucose + 10% dialyzed FBS, 46.1 µM

SMILES	cell viability [1] [%]	cell viability [2] [%]	cell viability [3] [%]	cell viability [4] [%]	cell viability [5] [%]	cell viability [6] [%]	cell viability [7] [%]	cell viability [8] [%]	cell viability [9] [%]	cell viability [10] [%]	cell viability [11] [%]	cell viability [12] [%]	cell viability [13] [%]	cell viability [14] [%]	cell viability [15] [%]	cell viability [16] [%]	cell viability [17] [%]	cell viability [18] [%]	cell viability [19] [%]	cell viability [20] [%]	cell viability [21] [%]	cell viability [22] [%]	cell viability [23] [%]	cell viability [24] [%]	cell viability [25] [%]	cell viability [26] [%]	cell viability [27] [%]	cell viability [28] [%]	cell viability [29] [%]	cell viability [30] [%]	cell viability [31] [%]	cell viability [32] [%]	cell viability [33] [%]
CCc1nc(N)nc(N)c1-c1ccc(Cl)cc1	93.6	97.3	89.5	98.6	95.5	89.1	76.1	56.5	46.2	33.8	21.9	91.2	91.9	88.6	93.4	107	97	98.4	90	87.3	68.4	57.1	82.2	91.3	89	96.6	95.3	90.1	84.3	85.2	86.5	48.3	24.4
C[C@]12CC[C@H]3[C@@H](CC[C@@]45O[C@@H]4C(O)=C(C#N)C[C@]35C)[C@@H]1CC[C@@H]2O	108	116	113	116	125	116	111	115	113	107	20.9	101	103	108	120	108	114	121	122	116	108	12.3	101	103	113	116	114	114	111	115	109	105	16.7
Cn1cnc(N)c2ncnc1-2	110	116	125	127	115	116	124	110	88.5	5.12	4.04	97.1	119	114	117	121	114	126	113	83.6	6.1	3.21	97.9	109	117	128	123	130	124	113	91.9	7.88	3.87
Cc1cnc(Nc2cccc(CN3CCOCC3)c2)nc1Nc1cccc([S+](=O)([O-])NC(C)(C)C)c1	90	91.9	90.5	96.2	91.9	89.3	95.1	92.2	44	91.5	54.4	91	87.7	85.9	92.2	89.8	88.7	80.8	86.4	20.5	88.2	73.4	80.8	83.2	82.6	79.7	85.9	82.3	85.4	81.4	41.7	76.8	53.1
CCCC[S+](=N)([O-])CCC(N)C(=O)O (centres undefined)	113	124	127	126	132	137	135	139	131	128	6.85	–	–	–	–	–	–	–	–	–	–	–	–	–	–	–	–	–	–	–	–	–	–
CN(C[C@@H]1COCCO1)[S+]([O-])(=O)NC2=CC3=C(C=C2)\C=C/C4=C(C=C(C=N4)C5=C[N](C)N=C5)C3=O	93.4	99.6	94.1	101	93.7	90.1	71.8	67.4	54.7	49.8	52.4	95.6	92.7	103	95.2	102	96.1	76.6	53.5	48.8	42.2	50	94	97.1	88.7	91.2	105	88.9	75.3	53.6	43.3	37.6	41.5
CC(C)[C@H](O)C(=O)N[C@@H](C)C(=O)N[C@@H]1C(=O)N(C)CCc2ccccc21	112	114	111	112	115	108	102	90.7	110	91.4	90.7	114	123	122	109	119	116	104	113	106	97.7	105	116	113	113	105	96.6	106	102	99.6	94.6	98.8	92.7
Nc1nccc(-c2ccc3noc(-c4ccc(Cl)cc4)c3c2)n1	124	124	131	129	120	124	128	120	122	115	118	–	–	–	–	–	–	–	–	–	–	–	116	119	122	123	117	115	110	123	115	105	110
CC(C)(Sc1cc(C(C)(C)C)c(O)c(C(C)(C)C)c1)Sc1cc(C(C)(C)C)c(O)c(C(C)(C)C)c1	88.5	84.4	90	96.2	94.1	91	95.7	89.4	97	99.7	99.9	80.2	77.9	87.2	85.6	83.9	92.8	93.7	85.4	79.2	92.8	92.8	79.2	85.3	82.3	85.6	87.8	87.6	84.7	87.2	81.3	81.2	88.4
O=C(CCCN1CCC(O)(c2ccc(Cl)cc2)CC1)c1ccc(F)cc1	105	107	109	116	119	123	111	111	119	127	107	106	112	111	124	124	132	116	126	124	131	95.9	108	114	117	111	116	131	115	115	119	112	99.8
COc1ccc(-n2c(C)c([N+](=O)[O-])c3ccc(O)cc32)cc1	–	–	–	–	–	–	–	–	–	–	–	127	118	118	126	118	123	122	121	115	111	105	119	121	120	122	114	118	121	122	106	112	102
COc1cc(N2CCN(C)CC2)ccc1Nc1nc(N)c(C(=O)c2c(Cl)cccc2Cl)s1	111	118	106	113	111	108	112	103	105	96.2	50.2	119	117	125	110	114	111	115	105	101	99.5	50.5	120	120	131	117	112	117	119	114	115	101	54.3
C/C=C(\C)C(=O)N[C@@H](c1ccccc1)[C@@H](O)C(=O)O[C@H]1C[C@@]2(O)[C@@H](OC(=O)c3ccccc3)[C@@H]3[C@]4(OC(C)=O)CO[C@@H]4C[C@H](O)[C@@]3(C)C(=O)[C@H](OC(C)=O)C(=C1C)C2(C)C	45.3	23.3	25.7	15.9	22.2	19	21.4	20.3	19	19	14.2	46.4	20.9	25.7	13.8	15.1	17.2	16.8	16.6	13	13	10.6	49.5	27.8	32.8	23	23	23.4	30.4	28.5	24.6	24.8	21.1
COc1cccc(N(C)C(=S)Oc2ccc3c(c2)CCCC3)n1	97.6	97.3	103	106	111	108	112	107	97.6	107	101	96.6	103	99.1	103	104	92.2	107	104	96.9	95.6	88.1	94.9	86.6	104	96.9	99.7	94.2	101	92.1	96.6	94.8	81.1
O=C(NOCC1CC1)c1ccc(F)c(F)c1Nc1ccc(I)cc1Cl	92.8	98	104	110	114	106	101	94.8	84.3	82.2	79.3	96.6	102	105	103	110	98	97.1	88.7	74	60.9	70	92.9	106	98	112	109	114	110	112	91.8	71	82.6
CC(C)[C@H]1C(=O)N[C@H](CO)Cc2c[nH]c3cccc(c23)N1C	87.3	96	98.3	108	110	99.2	92.2	88.1	74.2	83.9	88.8	91.5	98.8	104	105	110	98.9	76.9	75.4	63.7	65.4	74.5	87	99.7	97.9	101	107	90.3	79.1	70.6	58	64.5	65.3
